Data published in EPA's ToxValDB 9.5 (doi:10.2903/j.efsa.2009.1341).
In brackets after ≈: the same amount, converted by molar mass.

Experiments:
Apis mellifera = conditions: acute; duration: 48 hours; inhalation; unspecified; mortality
Rattus norvegicus = conditions: for LD50: acute
Cyprinodon variegatus = conditions: acute; duration: 96 hours; mortality
Pimephales promelas = conditions: chronic/long-term; duration: 33 days; growth
Canidae = conditions: short-term; duration: 2 weeks; Dog Other
Daphnia magna = conditions: chronic/long-term; duration: 21 days; mortality
Mus musculus = conditions: chronic; duration: 2 years; inhalation; histopathology: nonneoplastic

ClC=CCCl [1,3-Dichloropropene]
NOEC (Apis mellifera): 115 mg/m3
LD50 (Rattus norvegicus; inhalation, mortality): 2.7 mg/L
LD50 (Rattus norvegicus; oral, mortality): 130 mg/kg
NOAEL (Rattus norvegicus; chronic, duration: 2 years, oral, diet, histopathology: neoplastic): 2.5 mg/kg-day
NOAEL (Rattus norvegicus; chronic, oral, mortality): 2.5 mg/kg-day
NOAEL (Rattus norvegicus; reproduction developmental, inhalation, reproduction): < 0.0908 mg/L
NOAEL (Rattus norvegicus; subchronic, duration: 13 weeks, inhalation, histopathology: nonneoplastic): 9.72 mg/kg-day
NOAEL (Rattus norvegicus; subchronic, duration: 90 days, oral, mortality): 5 mg/kg-day
LC50 (Cyprinodon variegatus): 0.87 mg/L (≈ 7.84 µM)
NOEC (Pimephales promelas): 0.032 mg/L
NOAEL (Canidae): 20 mg/kg-day
LC50 (Tagia sp.; acute, duration: 14 days, mortality): 55.6 mg/kg
NOEC (Tagia sp.; chronic/long-term, duration: 56 days, reproduction): 770 mg/kg
NOEC (Daphnia magna): 0.0701 mg/L
NOAEL (Mus musculus): 1.1 mg/kg-day
